# Key:
# barnyardgrass [1] = assay: Test A preemergence; format: in vivo, Echinochloa crus-galli
# How it was run: (§1)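 Compounds in non-phytotoxic solvent with surfactant applied as soil spray preemergence, or postemergence to plants 2-10 cm at one- to two-leaf stage, in loam/sand. After approximately 10 days in greenhouse, injury rated visually versus untreated controls, 0 (no effect) to 100 (complete control).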
# kochia [2] = assay: Test A preemergence; format: in vivo, Kochia scoparia
# How it was run: as §1
# ragweed [3] = assay: Test A preemergence; format: in vivo, Ambrosia elatior
# How it was run: as §1
# Italian ryegrass [4] = assay: Test A preemergence; format: in vivo, Lolium multiflorum
# How it was run: as §1
# giant foxtail [5] = assay: Test A preemergence; format: in vivo, Setaria faberii
# How it was run: as §1
# pigweed [6] = assay: Test A preemergence; format: in vivo, Amaranthus retroflexus
# How it was run: as §1
# barnyardgrass [7] = assay: Test A postemergence; format: in vivo, Echinochloa crus-galli
# How it was run: as §1
# kochia [8] = assay: Test A postemergence; format: in vivo, Kochia scoparia
# Source text: (§2) Seeds of plant species selected from barnyardgrass (Echinochloa crus-galli), kochia (Kochia scoparia), ragweed (common ragweed, Ambrosia elatior), Italian ryegrass (Lolium multiflorum), large (Lg) crabgrass (Digitaria sanguinalis), giant foxtail (Setaria faberii), morningglory (Ipomoea spp.), pigweed (Amaranthus retroflexus), velvetleaf (Abutilon theophrasti), wheat (Triticum aestivum), and corn (Zea mays) were planted into a blend of loam soil and sand and treated preemergence with a directed soil spray using test chemicals formulated in a non-phytotoxic solvent mixture which included a surfactant.
# (§3) At the same time, plants selected from these crop and weed species and also blackgrass (Alopecurus myosuroides), and galium (catchweed bedstraw, Galium aparine) were planted in pots containing the same blend of loam soil and sand and treated with postemergence applications of test chemicals formulated in the same manner. Plants ranged in height from 2 to 10 cm and were in the one- to two-leaf stage for the postemergence treatment. Treated plants and untreated controls were maintained in a greenhouse for approximately 10 days, after which time all treated plants were compared to untreated controls and visually evaluated for injury. Plant response ratings, summarized in Table A, are based on a 0 to 100 scale where 0 is no effect and 100 is complete control. A dash (-) response means no test result.
# ragweed [9] = assay: Test A postemergence; format: in vivo, Ambrosia elatior
# How it was run: as §1
# Italian ryegrass [10] = assay: Test A postemergence; format: in vivo, Lolium multiflorum
# Source text: as §2, §3
# giant foxtail [11] = assay: Test A postemergence; format: in vivo, Setaria faberii
# How it was run: as §1
# pigweed [12] = assay: Test A postemergence; format: in vivo, Amaranthus retroflexus
# How it was run: as §1
# wheat = assay: Test A postemergence; format: in vivo, Triticum aestivum
# How it was run: as §1
# corn = assay: Test A postemergence; format: in vivo, Zea mays
# How it was run: as §1
# blackgrass = assay: Test A postemergence; format: in vivo, Alopecurus myosuroides
# Source text: as §2, §3
# galium = assay: Test A postemergence; format: in vivo, Galium aparine
# How it was run: as §1
# rice = assay: Test B flooded paddy test; format: in vivo, Oryza sativa; conditions: Flood, 250 g ai/ha; 0 to 100 scale where 0 is no effect and 100 is complete control
# How it was run: (§4)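 Compound added straight to paddy water, with pots kept flooded 3 cm above soil, on plants grown to the 2-leaf stage. Visual scoring 0-100 (100 = complete control) against untreated controls after 13 to 15 greenhouse days.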
# sedge, umbrella = assay: Test B flooded paddy test; format: in vivo, Cyperus difformis; conditions: Flood, 250 g ai/ha; 0 to 100 scale where 0 is no effect and 100 is complete control
# How it was run: as §4
# Heteranthera limosa = assay: Test B flooded paddy test; format: in vivo; conditions: Flood, 250 g ai/ha; 0 to 100 scale where 0 is no effect and 100 is complete control
# How it was run: as §4
# barnyardgrass [13] = assay: Test B flooded paddy test; format: in vivo, Echinochloa crus-galli; conditions: Flood, 250 g ai/ha; 0 to 100 scale where 0 is no effect and 100 is complete control
# How it was run: as §4
# [14] = 31 g ai/ha, 0 to 100 scale where 0 is no effect and 100 is complete control, visual, approximately 10 days
# [15] = 125 g ai/ha, 0 to 100 scale where 0 is no effect and 100 is complete control
# [16] = 31 g ai/ha, 0 to 100 scale, 0 no effect, 100 complete control
# [17] = 125 g ai/ha, 0 to 100 scale, 0 no effect, 100 complete control
# [18] = 500 g ai/ha, 0 to 100 scale where 0 is no effect and 100 is complete control
smiles,measurement,setting,value
N#Cc1cnn(-c2c(Cl)cccc2Oc2ncc(Cl)cn2)c1 [Compound 144],"Plant response rating, Barnyardgrass",barnyardgrass [1]; [14],20
same,"Plant response rating, Barnyardgrass",barnyardgrass [1]; [15],90
same,"Plant response rating, Kochia",kochia [2]; [14],70
same,"Plant response rating, Kochia",kochia [2]; [15],100
same,"Plant response rating, Ragweed",ragweed [3]; [14],0
same,"Plant response rating, Ragweed",ragweed [3]; [15],100
same,"Plant response rating, Ryegrass, Italian",Italian ryegrass [4]; [14],20
same,"Plant response rating, Ryegrass, Italian",Italian ryegrass [4]; [15],20
same,"Plant response rating, Foxtail, Giant",giant foxtail [5]; [14],70
same,"Plant response rating, Foxtail, Giant",giant foxtail [5]; [15],100
same,"Plant response rating, Pigweed",pigweed [6]; [14],90
same,"Plant response rating, Pigweed",pigweed [6]; [15],100
same,"Plant response rating, Barnyardgrass",barnyardgrass [7]; [16],20
same,Barnyardgrass plant response rating,barnyardgrass [7]; [15],90
same,"Plant response rating, Kochia",kochia [8]; [16],50
same,Kochia plant response rating,kochia [8]; [15],100
same,"Plant response rating, Ragweed",ragweed [9]; [16],20
same,Ragweed plant response rating,ragweed [9]; [15],80
same,"Plant response rating, Ryegrass, Italian",Italian ryegrass [10]; [16],0
same,"Ryegrass, Italian plant response rating",Italian ryegrass [10]; [15],50
same,"Plant response rating, Foxtail, Giant",giant foxtail [11]; [16],20
same,"Foxtail, Giant plant response rating",giant foxtail [11]; [15],100
same,"Plant response rating, Pigweed",pigweed [12]; [16],80
same,Pigweed plant response rating,pigweed [12]; [15],100
same,"Plant response rating, Wheat",wheat; [16],20
same,Wheat plant response rating,wheat; [15],20
same,"Plant response rating, Corn",corn; [16],20
same,Corn plant response rating,corn; [15],40
same,"Plant response rating, Blackgrass",blackgrass; [16],20
same,Blackgrass plant response rating,blackgrass; [15],90
same,"Plant response rating, Galium",galium; [16],80
same,Galium plant response rating,galium; [15],90
same,"Plant response rating, Rice",rice,0
same,"Plant response rating, Sedge, Umbrella","sedge, umbrella",80
same,"Plant response rating, Ducksalad",Heteranthera limosa,95
same,"Plant response rating, Barnyardgrass",barnyardgrass [13],0
FCc1cccc(Oc2ncc(Br)cn2)c1-n1cc(Cl)cn1 [Compound 251],"Plant response rating, Barnyardgrass",barnyardgrass [1]; [14],30
same,"Barnyardgrass plant response rating (0 to 100 scale, 0 is no effect, 100 is complete control)",barnyardgrass [1]; 125 g ai/ha,50
same,"Plant response rating, Kochia",kochia [2]; [14],10
same,Kochia plant response rating (0 to 100 scale),kochia [2]; 125 g ai/ha,70
same,"Plant response rating, Ragweed",ragweed [3]; [14],0
same,Ragweed plant response rating (0 to 100 scale),ragweed [3]; 125 g ai/ha,30
same,"Plant response rating, Ryegrass, Italian",Italian ryegrass [4]; [14],0
same,"Ryegrass, Italian plant response rating (0 to 100 scale)",Italian ryegrass [4]; 125 g ai/ha,0
same,"Plant response rating, Foxtail, Giant",giant foxtail [5]; [14],50
same,"Foxtail, Giant plant response rating (0 to 100 scale)",giant foxtail [5]; 125 g ai/ha,80
same,"Plant response rating, Pigweed",pigweed [6]; [14],70
same,Pigweed plant response rating (0 to 100 scale),pigweed [6]; 125 g ai/ha,90
same,"Plant response rating, Barnyardgrass",barnyardgrass [7]; [16],10
same,"Plant response rating, Barnyardgrass",barnyardgrass [7]; [17],30
same,"Plant response rating, Kochia",kochia [8]; [16],40
same,"Plant response rating, Kochia",kochia [8]; [17],60
same,"Plant response rating, Ragweed",ragweed [9]; [16],10
same,"Plant response rating, Ragweed",ragweed [9]; [17],20
same,"Plant response rating, Ryegrass, Italian",Italian ryegrass [10]; [16],0
same,"Plant response rating, Ryegrass, Italian",Italian ryegrass [10]; [17],10
same,"Plant response rating, Foxtail, Giant",giant foxtail [11]; [16],30
same,"Plant response rating, Foxtail, Giant",giant foxtail [11]; [17],60
same,"Plant response rating, Pigweed",pigweed [12]; [16],60
same,"Plant response rating, Pigweed",pigweed [12]; [17],70
same,"Plant response rating, Wheat",wheat; [16],0
same,"Plant response rating, Wheat",wheat; [17],0
same,"Plant response rating, Corn",corn; [16],0
same,"Plant response rating, Corn",corn; [17],20
same,"Plant response rating, Blackgrass",blackgrass; [16],50
same,"Plant response rating, Blackgrass",blackgrass; [17],70
same,"Plant response rating, Galium",galium; [16],20
same,"Plant response rating, Galium",galium; [17],30
same,"Plant response rating, Rice",rice,0
same,"Plant response rating, Sedge, Umbrella","sedge, umbrella",40
same,"Plant response rating, Ducksalad",Heteranthera limosa,75
same,"Plant response rating, Barnyardgrass",barnyardgrass [13],0
COc1ccc(C#N)c(-n2cc(Br)cn2)c1Oc1ncc(Cl)cn1 [Compound 212],"Barnyardgrass plant response rating (0 to 100 scale, 0 is no effect, 100 is complete control)",barnyardgrass [1]; 125 g ai/ha,0
same,Barnyardgrass plant response rating,barnyardgrass [1]; [18],20
same,Kochia plant response rating (0 to 100 scale),kochia [2]; 125 g ai/ha,0
same,Kochia plant response rating,kochia [2]; [18],40
same,Ragweed plant response rating (0 to 100 scale),ragweed [3]; 125 g ai/ha,0
same,Ragweed plant response rating,ragweed [3]; [18],0
same,"Ryegrass, Italian plant response rating (0 to 100 scale)",Italian ryegrass [4]; 125 g ai/ha,0
same,"Ryegrass, Italian plant response rating",Italian ryegrass [4]; [18],20
same,"Foxtail, Giant plant response rating (0 to 100 scale)",giant foxtail [5]; 125 g ai/ha,0
same,"Foxtail, Giant plant response rating",giant foxtail [5]; [18],50
same,Pigweed plant response rating (0 to 100 scale),pigweed [6]; 125 g ai/ha,70
same,Pigweed plant response rating,pigweed [6]; [18],90
same,Barnyardgrass plant response rating,barnyardgrass [7]; [15],0
same,"Plant response rating, Barnyardgrass",barnyardgrass [7]; [18],0
same,Kochia plant response rating,kochia [8]; [15],0
same,"Plant response rating, Kochia",kochia [8]; [18],10
same,Ragweed plant response rating,ragweed [9]; [15],0
same,"Plant response rating, Ragweed",ragweed [9]; [18],10
same,"Ryegrass, Italian plant response rating",Italian ryegrass [10]; [15],20
same,"Plant response rating, Ryegrass, Italian",Italian ryegrass [10]; [18],30
same,"Foxtail, Giant plant response rating",giant foxtail [11]; [15],0
same,"Plant response rating, Foxtail, Giant",giant foxtail [11]; [18],50
same,Pigweed plant response rating,pigweed [12]; [15],20
same,"Plant response rating, Pigweed",pigweed [12]; [18],30
same,Wheat plant response rating,wheat; [15],0
same,"Plant response rating, Wheat",wheat; [18],30
same,Corn plant response rating,corn; [15],0
same,"Plant response rating, Corn",corn; [18],0
same,Blackgrass plant response rating,blackgrass; [15],10
same,"Plant response rating, Blackgrass",blackgrass; [18],50
same,Galium plant response rating,galium; [15],10
same,"Plant response rating, Galium",galium; [18],30
same,"Plant response rating, Rice",rice,0
same,"Plant response rating, Sedge, Umbrella","sedge, umbrella",0
same,"Plant response rating, Ducksalad",Heteranthera limosa,0
same,"Plant response rating, Barnyardgrass",barnyardgrass [13],0
